Experimental findings from article PMC10392092, “Structural and molecular basis for urea recognition by Prochlorococcus” (The Journal of Biological Chemistry, 2023) are described below.

The structures appear in SMILES notation.

Assay in all cases: isothermal titration calorimetry
Type in all cases: binding

The target in experiment [1] is T1, UrtA (Prochlorococcus marinus, UniProt Q7V3V9, E146A).
T1 construct: 24-residue predicted signal peptide removed from 431-residue precursor (432 elsewhere in the source); C-terminal 6xHis tag, pET-22b, E. coli BL21(DE3); about 50 kDa; monomer; structure residues 38-431 described
T1 sequence (Q7V3V9 entry or part of it E146A): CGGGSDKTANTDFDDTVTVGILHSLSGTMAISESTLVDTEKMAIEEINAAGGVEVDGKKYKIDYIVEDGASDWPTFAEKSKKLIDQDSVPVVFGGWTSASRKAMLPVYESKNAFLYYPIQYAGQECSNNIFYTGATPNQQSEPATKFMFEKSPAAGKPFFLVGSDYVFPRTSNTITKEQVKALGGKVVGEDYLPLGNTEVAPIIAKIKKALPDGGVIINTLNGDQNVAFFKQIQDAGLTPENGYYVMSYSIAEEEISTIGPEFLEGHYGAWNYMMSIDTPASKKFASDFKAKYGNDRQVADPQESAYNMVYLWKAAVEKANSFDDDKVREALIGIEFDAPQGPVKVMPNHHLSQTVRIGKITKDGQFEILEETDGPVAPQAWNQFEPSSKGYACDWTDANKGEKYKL

Experiment [2] addresses T2, UrtA (Prochlorococcus marinus, UniProt Q7V3V9, Y141A).
T2 construct: 24-residue predicted signal peptide removed from 431-residue precursor (432 elsewhere in the source); C-terminal 6xHis tag, pET-22b, E. coli BL21(DE3); about 50 kDa; monomer; structure residues 38-431 described

The target of experiment [3] is T3, UrtA (Prochlorococcus marinus, UniProt Q7V3V9, F192A).
T3 construct: 24-residue predicted signal peptide removed from 431-residue precursor (432 elsewhere in the source); C-terminal 6xHis tag, pET-22b, E. coli BL21(DE3); about 50 kDa; monomer; structure residues 38-431 described
T3 sequence (Q7V3V9 entry or part of it F192A): as the sequence (Q7V3V9 entry or part of it E146A) above, with A122E, F168A counted along it

Experiment [4] has as its target T4, UrtA (Prochlorococcus marinus, UniProt Q7V3V9).
T4 construct: 24-residue predicted signal peptide removed from 431-residue precursor (432 elsewhere in the source); C-terminal 6xHis tag, pET-22b, E. coli BL21(DE3); about 50 kDa; monomer; structure residues 38-431 described
T4 sequence (Q7V3V9 25-431): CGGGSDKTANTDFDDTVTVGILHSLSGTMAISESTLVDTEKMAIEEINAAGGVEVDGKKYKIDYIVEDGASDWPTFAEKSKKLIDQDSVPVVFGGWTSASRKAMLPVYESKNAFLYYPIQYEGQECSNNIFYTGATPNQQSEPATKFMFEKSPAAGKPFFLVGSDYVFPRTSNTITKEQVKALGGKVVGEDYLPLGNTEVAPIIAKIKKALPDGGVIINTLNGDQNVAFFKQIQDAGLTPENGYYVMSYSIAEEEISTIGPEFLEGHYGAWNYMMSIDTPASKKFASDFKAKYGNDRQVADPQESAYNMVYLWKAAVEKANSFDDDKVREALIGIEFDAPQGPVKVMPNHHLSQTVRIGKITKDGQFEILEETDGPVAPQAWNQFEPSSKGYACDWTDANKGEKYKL

Experiment [5] addresses T5, UrtA (Prochlorococcus marinus, UniProt Q7V3V9, S274A).
T5 construct: 24-residue predicted signal peptide removed from 431-residue precursor (432 elsewhere in the source); C-terminal 6xHis tag, pET-22b, E. coli BL21(DE3); about 50 kDa; monomer; structure residues 38-431 described

The target of experiment [6] is T6, UrtA (Prochlorococcus marinus, UniProt Q7V3V9, W120A).
T6 construct: 24-residue predicted signal peptide removed from 431-residue precursor (432 elsewhere in the source); C-terminal 6xHis tag, pET-22b, E. coli BL21(DE3); about 50 kDa; monomer; structure residues 38-431 described
T6 sequence (Q7V3V9 entry or part of it W120A): as the sequence (Q7V3V9 entry or part of it E146A) above, with W96A, A122E counted along it
The settings on record: pH 8.0, 20 mM Tris-HCl, 200 mM NaCl, 25 °C.

T2 sequence (Q7V3V9 entry or part of it Y141A): as the sequence (Q7V3V9 entry or part of it E146A) above, with Y117A, A122E counted along it
T5 sequence (Q7V3V9 entry or part of it S274A): as the sequence (Q7V3V9 entry or part of it E146A) above, with A122E, S250A counted along it

For orientation: Kd means the free concentration of one partner at which half of the binding sites on the other are occupied at equilibrium, for simple one-to-one binding. A higher Kd goes with lower affinity. For `NC(N)=O` [urea], the equilibrium dissociation constant (Kd) is 3050 ± 609 nM in experiment [1]; 7950 ± 1220 nM in experiment [2]; 114 ± 26.7 nM in experiment [3]; 141 ± 11.2 nM in experiment [4]; 1280 ± 639 nM in experiment [5]; “the mutant W120A was unable to bind to urea” in experiment [6].
